Reference: ChEMBL document CHEMBL5325507, “A TNF-α blocking peptide that reduces NF-κB and MAPK activity for attenuating inflammation” (Bioorg Med Chem, 2023)
Calls of active or inactive are those of the source. The rule behind the calls is not given here. Numbered stars: 1 amine (or outer) side, 2 acyl side, 3 side chain; on linkers, the order of the positions; unused ones are H or OH. Bridge positions count the residues as written; N and C are the ends. Square brackets hold non-standard residues; d marks the D form. Peptide text beside a SMILES is read from it. I, II: the chains in the order shown. Actinocin(9to1) = Cc1c2oc3c(C)ccc(C(=O)[*:1])c3nc-2c(C(=O)[*:2])c(N)c1=O; NMeV = CN[C@H](C(=O)O)C(C)C; Sar = CNCC(=O)O

What was measured:
L929 [1] = assay: Cytotoxicity against TNF-alpha induced mouse L929 cells assessed as increase in cell survival pretreated for 12 hrs followed by TNF-alpha induction and measured after 20 hrs by MTT assay; format: toxicity, cell-based; conditions: l929, 32 h
[2] = biological target: T1, Tumor necrosis factor receptor superfamily member 1A (Homo sapiens, UniProt P19438); assay: Competitive Inhibition of TNF-alpha binding to human recombinant TNFR1 incubated for 1 hr by ELISA analysis
T1 sequence (P19438 whole entry): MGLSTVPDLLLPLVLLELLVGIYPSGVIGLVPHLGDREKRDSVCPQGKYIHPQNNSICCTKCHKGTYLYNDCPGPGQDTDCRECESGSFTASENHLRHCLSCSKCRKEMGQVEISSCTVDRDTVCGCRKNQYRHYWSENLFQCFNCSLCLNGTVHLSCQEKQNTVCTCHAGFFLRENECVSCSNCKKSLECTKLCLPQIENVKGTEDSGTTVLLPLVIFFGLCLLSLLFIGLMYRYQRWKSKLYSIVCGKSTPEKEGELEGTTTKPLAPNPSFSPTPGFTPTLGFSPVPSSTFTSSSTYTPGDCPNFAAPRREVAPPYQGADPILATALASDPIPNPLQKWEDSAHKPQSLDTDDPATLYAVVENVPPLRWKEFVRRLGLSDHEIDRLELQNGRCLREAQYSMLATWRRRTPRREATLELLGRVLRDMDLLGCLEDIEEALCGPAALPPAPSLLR

[3] = biological target: T2, Tumor necrosis factor receptor superfamily member 1B (Homo sapiens, UniProt P20333); assay: Competitive Inhibition of TNF-alpha binding to human recombinant TNFR2 incubated for 1 hr by ELISA analysis
T2 sequence (P20333 whole entry): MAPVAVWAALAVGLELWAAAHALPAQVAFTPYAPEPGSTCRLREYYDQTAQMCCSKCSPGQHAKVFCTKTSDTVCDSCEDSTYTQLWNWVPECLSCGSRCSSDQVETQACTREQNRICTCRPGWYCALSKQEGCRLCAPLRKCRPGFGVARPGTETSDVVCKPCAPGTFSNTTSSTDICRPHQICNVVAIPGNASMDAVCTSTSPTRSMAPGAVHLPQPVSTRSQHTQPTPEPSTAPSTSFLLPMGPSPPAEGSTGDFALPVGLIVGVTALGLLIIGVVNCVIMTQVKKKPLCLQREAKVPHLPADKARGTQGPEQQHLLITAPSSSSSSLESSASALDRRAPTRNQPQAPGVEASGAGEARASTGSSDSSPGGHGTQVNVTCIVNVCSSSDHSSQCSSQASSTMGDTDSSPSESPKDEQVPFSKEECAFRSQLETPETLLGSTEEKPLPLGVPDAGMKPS

L929 [4] = assay: Cytotoxicity against TNF-alpha induced mouse L929 cells assessed as increase in cell survival pretreated for 12 hrs followed by TNF-alpha induction and measured after 18 to 20 hrs by MTT assay; format: toxicity, cell-based
HT-29 [5] = assay: Antiinflammatory activity in human HT-29 cells assessed as downregulation of TNF-alpha-induced IL-8 mRNA expression incubated for 6 hrs by RT-PCR analysis; format: functional, cell-based; conditions: dose 15-20 µM
HT-29 [6] = assay: Antiinflammatory activity in human HT-29 cells assessed as downregulation of TNF-alpha-induced ICAM mRNA expression incubated for 6 hrs by RT-PCR analysis; format: functional, cell-based; conditions: dose 15-20 µM
HT-29 [7] = assay: Antiinflammatory activity in human HT-29 cells assessed as downregulation of TNF-alpha-induced IL-1beta mRNA expression incubated for 6 hrs by RT-PCR analysis; format: functional, cell-based; conditions: dose 15-20 µM
HT-29 [8] = assay: Antiinflammatory activity in human HT-29 cells assessed as downregulation of TNF-alpha-induced IFN-gamma mRNA expression incubated for 6 hrs by RT-PCR analysis; format: functional, cell-based; conditions: dose 15-20 µM
HEK293-A [9] = assay: Inhibition of TNF-alpha induced MAPK activation in HEK293-A cells assessed as decrease in phosphorylated p38 expression at 15 to 120 uM incubated for 15 mins by Western blot analysis; format: cell-based; conditions: Homo sapiens, dose 15-120 µM
HEK293-A [10] = assay: Inhibition of TNF-alpha induced MAPK activation in HEK293-A cells assessed as decrease in phosphorylated ERK expression at 15 to 120 uM incubated for 15 mins by Western blot analysis; format: cell-based; conditions: Homo sapiens, dose 15-120 µM
HEK293-A [11] = assay: Inhibition of TNF-alpha induced MAPK activation in HEK293-A cells assessed as decrease in phosphorylated JNK expression at 15 to 120 uM incubated for 15 mins by Western blot analysis; format: cell-based; conditions: Homo sapiens, dose 15-120 µM
[12] = biological target: T3, Nuclear factor NF-kappa-B complex (Homo sapiens) (UniProt Q00653+P19838+Q04206); assay: Inhibition of TNF-alpha induced NF-kappaB activation in HEK293-A cells assessed as decrease in phosphorylated IkappaB level at 15 to 120 uM incubated for 15 mins by Western blot analysis; format: cell-based; conditions: dose 15-120 µM
HEK293-A [13] = assay: Inhibition of TNF-alpha induced MAPK activation in HEK293-A cells incubated for 15 mins by Western blot analysis; format: cell-based; conditions: Homo sapiens, dose 15-120 µM
HEK293-A [14] = assay: Inhibition of TNF-alpha induced MAPK activation in HEK293-A cells at 15 to 120 uM by Western blot analysis; format: cell-based; conditions: Homo sapiens, dose 15-120 µM, time 15.0 min, TDE = time-dependent effect
[15] = biological target: T3, Nuclear factor NF-kappa-B complex (Homo sapiens); assay: Inhibition of TNF-alpha induced NF-kappaB activation in HEK293-A cells incubated for 15 mins by Western blot analysis; format: cell-based; conditions: dose 15-120 µM
[16] = biological target: T3, Nuclear factor NF-kappa-B complex (Homo sapiens); assay: Inhibition of TNF-alpha induced NF-kappaB activation in HEK293-A cells at 15 to 120 uM by Western blot analysis; format: cell-based; conditions: dose 15-120 µM, time 15.0 min, TDE = time-dependent effect
[17] = biological target: Transcription factor p65 (Homo sapiens) (UniProt Q04206); assay: Inhibition of TNF-alpha induced NF-kappaB p65 nuclear translocation in human HaCaT cells at 30 to 120 uM incubated for 10 mins DAPI staining based fluorescence microscopic analysis; format: cell-based; conditions: dose 30-120 µM
[18] = biological target: Transcription factor p65 (Homo sapiens) (UniProt Q04206); assay: Inhibition of TNF-alpha induced NF-kappaB p65 nuclear translocation in human HaCaT cells at 120 uM incubated for 10 mins DAPI staining based fluorescence microscopic analysis; format: cell-based

T3 sequence (P19838 whole entry, looked up): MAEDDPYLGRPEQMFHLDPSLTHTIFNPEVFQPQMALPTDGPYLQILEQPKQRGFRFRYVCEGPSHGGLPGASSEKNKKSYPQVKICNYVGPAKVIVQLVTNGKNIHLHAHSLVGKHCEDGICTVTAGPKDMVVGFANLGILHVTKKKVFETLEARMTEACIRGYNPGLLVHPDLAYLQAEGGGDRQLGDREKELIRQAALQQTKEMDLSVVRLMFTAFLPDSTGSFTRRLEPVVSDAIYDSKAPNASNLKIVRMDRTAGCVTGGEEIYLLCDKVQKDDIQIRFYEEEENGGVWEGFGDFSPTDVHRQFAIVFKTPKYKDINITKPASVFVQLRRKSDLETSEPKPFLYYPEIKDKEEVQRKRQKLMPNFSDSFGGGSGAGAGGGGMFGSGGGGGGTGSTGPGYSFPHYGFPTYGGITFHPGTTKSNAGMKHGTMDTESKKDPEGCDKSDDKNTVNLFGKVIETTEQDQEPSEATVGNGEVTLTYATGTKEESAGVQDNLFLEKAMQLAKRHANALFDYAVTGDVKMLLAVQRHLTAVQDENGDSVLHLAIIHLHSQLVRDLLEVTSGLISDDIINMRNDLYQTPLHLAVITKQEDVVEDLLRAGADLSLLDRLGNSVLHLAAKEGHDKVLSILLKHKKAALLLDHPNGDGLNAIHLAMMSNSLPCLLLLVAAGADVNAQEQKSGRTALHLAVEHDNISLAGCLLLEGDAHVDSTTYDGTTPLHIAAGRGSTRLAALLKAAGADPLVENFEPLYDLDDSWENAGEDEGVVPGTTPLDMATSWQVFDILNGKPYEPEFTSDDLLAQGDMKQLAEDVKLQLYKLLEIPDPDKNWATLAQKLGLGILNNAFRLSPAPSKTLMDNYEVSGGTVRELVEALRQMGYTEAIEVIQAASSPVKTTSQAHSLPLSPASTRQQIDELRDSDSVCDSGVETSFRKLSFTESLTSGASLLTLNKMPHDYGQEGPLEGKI
T3 sequence (Q00653 whole entry, looked up): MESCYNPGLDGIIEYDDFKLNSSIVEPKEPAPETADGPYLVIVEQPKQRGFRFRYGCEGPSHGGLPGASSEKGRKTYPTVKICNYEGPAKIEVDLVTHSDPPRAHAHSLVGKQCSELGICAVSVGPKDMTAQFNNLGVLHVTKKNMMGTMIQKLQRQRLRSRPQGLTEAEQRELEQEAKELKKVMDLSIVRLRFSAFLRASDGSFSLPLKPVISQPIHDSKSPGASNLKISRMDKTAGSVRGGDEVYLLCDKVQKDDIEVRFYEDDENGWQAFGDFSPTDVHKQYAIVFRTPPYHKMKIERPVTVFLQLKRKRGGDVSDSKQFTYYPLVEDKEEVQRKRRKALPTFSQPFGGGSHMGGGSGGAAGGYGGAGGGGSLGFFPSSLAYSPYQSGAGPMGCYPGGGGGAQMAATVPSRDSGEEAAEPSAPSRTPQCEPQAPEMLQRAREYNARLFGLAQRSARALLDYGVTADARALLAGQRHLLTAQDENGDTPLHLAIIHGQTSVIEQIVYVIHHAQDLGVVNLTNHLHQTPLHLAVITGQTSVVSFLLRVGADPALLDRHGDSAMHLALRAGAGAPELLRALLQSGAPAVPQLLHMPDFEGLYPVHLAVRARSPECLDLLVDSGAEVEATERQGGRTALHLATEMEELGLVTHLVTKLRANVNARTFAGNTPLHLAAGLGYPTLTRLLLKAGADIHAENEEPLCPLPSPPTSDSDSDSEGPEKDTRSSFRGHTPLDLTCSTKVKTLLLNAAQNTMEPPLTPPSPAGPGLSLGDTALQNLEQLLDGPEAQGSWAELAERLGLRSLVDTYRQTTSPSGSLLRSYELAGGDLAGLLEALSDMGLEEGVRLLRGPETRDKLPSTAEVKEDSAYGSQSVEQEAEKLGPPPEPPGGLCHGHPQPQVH
T3 sequence (Q04206 whole entry, looked up): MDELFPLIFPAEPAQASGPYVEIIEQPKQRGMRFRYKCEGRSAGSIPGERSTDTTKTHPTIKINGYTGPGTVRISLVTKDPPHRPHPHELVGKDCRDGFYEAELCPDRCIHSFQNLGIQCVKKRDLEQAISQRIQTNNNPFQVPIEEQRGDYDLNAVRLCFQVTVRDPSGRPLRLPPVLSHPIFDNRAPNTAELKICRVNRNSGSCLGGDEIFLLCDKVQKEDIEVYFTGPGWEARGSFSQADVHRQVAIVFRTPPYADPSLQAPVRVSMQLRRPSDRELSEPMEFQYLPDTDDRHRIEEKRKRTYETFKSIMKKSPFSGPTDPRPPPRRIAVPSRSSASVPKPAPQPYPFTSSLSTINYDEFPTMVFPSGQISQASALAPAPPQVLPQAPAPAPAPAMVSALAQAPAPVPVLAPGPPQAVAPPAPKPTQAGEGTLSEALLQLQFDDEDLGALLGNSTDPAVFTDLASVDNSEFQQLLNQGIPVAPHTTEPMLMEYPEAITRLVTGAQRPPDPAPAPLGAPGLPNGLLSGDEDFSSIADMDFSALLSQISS
Chain of Transcription factor p65 (Homo sapiens) (Q04206 whole entry): as the sequence (Q04206 whole entry, looked up) above

| inhibition [12] | inhibition [15] | inhibition [16] | inhibition [17] | inhibition [18] | Molecule | Activity (L929 [1]) [%] | EC50 [2] [µM] | EC50 [3] [µM] | IC50 (L929 [4]) [µM] | Activity (HT-29 [5]) | Activity (HT-29 [6]) | Activity (HT-29 [7]) | Activity (HT-29 [8]) | inhibition (HEK293-A [9]) | inhibition (HEK293-A [10]) | inhibition (HEK293-A [11]) | inhibition (HEK293-A [13]) | inhibition (HEK293-A [14]) |
| --- | --- | --- | --- | --- | --- | --- | --- | --- | --- | --- | --- | --- | --- | --- | --- | --- | --- | --- |
| – | – | – | – | – | Cc1c2oc3c(C)ccc(C(=O)N[C@@H]4C(=O)N[C@H](C(C)C)C(=O)N5CCC[C@H]5C(=O)N(C)CC(=O)N(C)[C@@H](C(C)C)C(=O)O[C@@H]4C)c3nc-2c(C(=O)N[C@@H]2C(=O)N[C@H](C(C)C)C(=O)N3CCC[C@H]3C(=O)N(C)CC(=O)N(C)[C@@H](C(C)C)C(=O)O[C@@H]2C)c(N)c1=O [DACTINOMYCIN] (I: T[dV]P[Sar][NMeV] / II: T[dV]P[Sar][NMeV]; ester I:1-I:C, II:1-II:C; linker I:N-II:N via Actinocin(9to1)) | 70 | – | – | – | – | – | – | – | – | – | – | – | – |
| Active | Dose-Dependent Effect | Tde | Active | Active | H-DEFHLELHLYQSW-OH | – | 7.25 | 17 | 15.4 | Dose-Dependent Effect | Dose-Dependent Effect | Dose-Dependent Effect | Dose-Dependent Effect | Active | Active | Active | Dose-Dependent Effect | Tde |
